pIC50: −log10 of the molar value.

In data set [1] the test system is fMLP-stimulated RAW 264.7 macrophages. Description: O2^- scavenging in cultures of fMLP-stimulated macrophages, Fe(II)cytC oxidation. It is filed as cell-based. The text has this:
The chemotactic peptide fMLP triggers a specific inflammatory activation of the macrophages, which produce high levels of O2^-, that are measurable spectrophotometrically by means of the oxidation of the Fe(II)cytC chromogen.

In data set [2] the test system is rat aorta smooth muscle cells (RASM). Description: Protection from oxidative stress: MDA levels, O2^- generated by xanthine oxidase/xanthine. It is filed as cell-based. Particulars: xanthine oxidase/xanthine system; comparable with, or even greater than SOD. As to the method:
(§1) The primary targets of the cytotoxic action of ROS are the membrane lipids, which are peroxidised with the formation of malondialdehyde (MDA). This can be measured spectrophotometrically using the chromogen that is generated from the reaction of MDA with thiobarbituric acid. This measurement is consequently a reliable indicator of ROS-induced cell damage.
(§2) Cultures of rat aorta smooth muscle cells (RASM) were prepared in a medium in which O2^- was generated both by means of the xanthine oxidase/xanthine enzymatic system and by RAW 264.7 macrophages stimulation with fMLP (see the two diagrams shown below, respectively).

The test system of the next data set is O2^-. The data set can be described thus: O2^- scavenging in a cell-free system (xanthine/xanthine oxidase), NBT oxidation. It is filed as biochemical. As to conditions: compound at 10^-5 M; baseline 294±12 sec.; p<0.01. An excerpt:
(§3) In vitro, the xanthine oxidase enzyme metabolises the xanthine substrate and generates uric acid and O2 as products of the reaction, which can be measured spectrophotometrically by oxidation of the NBT chromogen.

Data set [3] deals with rat aorta smooth muscle cells (RASM). The data set can be described thus: Protection from oxidative stress: MDA levels, O2^- generated by fMLP-stimulated RAW 264.7 macrophages. It is filed as cell-based. Particulars: RAW 264.7 macrophages stimulated with fMLP; comparable with, or even greater than SOD. Here is the method: as §1, §2
The test system of a further data set is RAW 264.7 macrophages. Description: Toxicity: viability of macrophage cultures. It is filed as cell-based. Here is the method:
The viability of the cultures of RAW 264.7 macrophages was measured at various intervals (24, 48, 72 h) after adding increasing concentrations of the compound of Example 2 (10^-7 M- 10^-4 M).

The next data set relates to xanthine oxidase enzyme. Description: Uric acid levels in the xanthine/xanthine oxidase system (check for enzyme inhibition). It is filed as biochemical.
Chain of xanthine oxidase enzyme (P47989 whole entry, species assumed): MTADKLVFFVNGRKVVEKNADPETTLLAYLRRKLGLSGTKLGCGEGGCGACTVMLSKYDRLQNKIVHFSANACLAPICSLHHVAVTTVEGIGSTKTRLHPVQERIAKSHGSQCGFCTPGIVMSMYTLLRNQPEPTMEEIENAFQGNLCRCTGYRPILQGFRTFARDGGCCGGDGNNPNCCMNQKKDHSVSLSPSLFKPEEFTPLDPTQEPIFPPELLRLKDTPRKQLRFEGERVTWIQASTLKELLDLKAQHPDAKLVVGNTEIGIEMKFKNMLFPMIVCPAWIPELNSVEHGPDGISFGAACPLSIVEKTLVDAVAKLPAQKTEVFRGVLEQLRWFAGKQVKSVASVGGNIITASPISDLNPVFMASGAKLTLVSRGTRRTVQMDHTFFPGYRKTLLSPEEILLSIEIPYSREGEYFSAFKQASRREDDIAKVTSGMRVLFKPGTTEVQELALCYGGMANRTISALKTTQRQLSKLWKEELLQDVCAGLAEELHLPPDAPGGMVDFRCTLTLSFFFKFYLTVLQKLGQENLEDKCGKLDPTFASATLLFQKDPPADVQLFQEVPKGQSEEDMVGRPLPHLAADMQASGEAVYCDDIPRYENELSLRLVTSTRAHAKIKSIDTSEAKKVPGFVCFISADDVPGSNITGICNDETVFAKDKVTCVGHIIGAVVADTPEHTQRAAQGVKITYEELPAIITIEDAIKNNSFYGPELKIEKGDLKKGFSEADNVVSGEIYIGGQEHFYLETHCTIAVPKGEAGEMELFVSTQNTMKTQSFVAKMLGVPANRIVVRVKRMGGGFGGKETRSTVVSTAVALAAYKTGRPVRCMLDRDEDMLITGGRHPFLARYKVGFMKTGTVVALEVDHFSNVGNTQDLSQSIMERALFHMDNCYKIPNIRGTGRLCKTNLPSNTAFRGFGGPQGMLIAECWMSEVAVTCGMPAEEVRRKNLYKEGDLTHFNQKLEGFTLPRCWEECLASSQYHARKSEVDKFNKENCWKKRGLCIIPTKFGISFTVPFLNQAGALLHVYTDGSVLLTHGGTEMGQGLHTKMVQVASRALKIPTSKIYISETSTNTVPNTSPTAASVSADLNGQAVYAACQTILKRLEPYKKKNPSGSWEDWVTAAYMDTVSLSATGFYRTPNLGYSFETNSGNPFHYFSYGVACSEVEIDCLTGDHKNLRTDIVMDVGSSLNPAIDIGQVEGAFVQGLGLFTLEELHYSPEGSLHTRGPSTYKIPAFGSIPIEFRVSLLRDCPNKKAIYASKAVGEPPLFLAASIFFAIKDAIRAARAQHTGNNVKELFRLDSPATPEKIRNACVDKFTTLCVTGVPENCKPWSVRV
Excerpt: as §3

“Mn(4,10-dimethyl-1,4,7,10-tetraazacyclododecane-1,7-diacetate) 2H2O) [Example 2]”: in data set [1] (10^-9-10^-6 M), the “levels of oxidised Fe(II)cytC” value is listed as “dose-dependent, significant reduction”. The “activity when pre-incubated and then removed from the cell cultures before adding the activating stimulus” value in data set [1] (pre-incubation, removal before fMLP) is “remains active”. Moreover, in data set [1] (reduction of O2^- generated by fMLP-activated macrophages, read-out: 50% inhibiting concentration (IC50%)), the pIC50 was 7.22. Moreover, the “levels of MDA in the RASM cells” value in data set [2] and in data set [3] was “significantly reduced” throughout. Further, in the data set on O2^-, the “time taken to oxidise 50% of the NBT” value stood at 390 ± 16 s. In the data set on RAW 264.7 macrophages (10^-7 M-10^-4 M, 24, 48, 72 h, effect only after 72 hours and at 10^-5-10^-4 M), the “cytotoxicity (viability of the cultures)” value was “mildly cytotoxic only after incubation times of 72 hours and at the greatest concentrations”. Moreover, in the data set with RAW 264.7 macrophages (concentrations of the order of 0.1 milligrams/litre), the “cell toxicity at active concentrations” value was “no cell toxicity”. In the data set with xanthine oxidase enzyme, the “levels of uric acid” value was “does not reduce the levels of uric acid”.

Regarding MnSO4 [reference compound], the “effectiveness in reducing O2^- levels generated by fMLP-activated macrophages” value in data set [1] (Figure 2) was “entirely ineffective”.

These data come from patent EP2340020B1, “MANGANESE AND COBALT COMPLEXES, THEIR PREPARATION AND USE” (GP Investimenti S.r.l., priority 2008, dated 2010).
